{
  "source": "patent US20220409643A1",
  "about": "“ROR Gamma T Inhibitors and Topical Uses Thereof” (Dermira, inc., priority 2019, published 2022)",
  "key": {"[1]": {"tested_on": "imiquimod (IMQ)-induced psoriasis in mice", "experiment": "IMQ-induced psoriasis in mice, topical treatment", "format": "in vivo", "conditions": "0.05% topical clobetasol cream, 10% body surface area", "description": "Topical application of imiquimod (IMQ), a TLR7/8 ligand and potent immune activator, is applied to the shaved backs and ears of mice to induce psoriasis. Information on the murine model of IMQ-induced psoriasis can be found at van der Fits L, Mourits S, Voerman JS, Kant M, Boon L, Laman JD, et al. Imiquimod-induced psoriasis-like skin inflammation in mice is mediated via the IL-23/IL-17 axis. J Immunol. 2009; 182:5836-45, which is hereby incorporated by reference in its entirety. Following administration of IMQ, mice ears and skin are observed for erythema, occurrence of scales and thickness after a period of six days. One group of mice were administered 0.05% topical clobetasol cream (10% body surface area), a potent topical steroid, as a positive control, and one group of mice received topical vehicle lacking Compoun 1 (10% body surface area), and one group was administered Compound 1 (3% formulation)(10% body surface area).\nThe mice were evaluated for erythema, presence of scales, thickness of ear tissue and body weight following administration of the treatments described above. Erythema and scales are determined by comparing the mice to a reference for color and severity of scaling."}, "Th17 associated genes": {"tested_on": "Th17 associated genes", "experiment": "expression of Th17 associated genes in skin by real-time quantitative reverse transcription PCR", "format": "cell-based", "conditions": "skin harvested 24 hours after induction of inflammation", "procedure": "Studies were carried out to determine the effect of two RORγt inhibitors of the present disclosure (i.e., Compound 1 and Compound 2, prepared in formulation as described in Example 1) on Th17 associated genes. Skin was harvested from subjects 24 hours after induction of inflammation. The RNA from the samples were isolated, and expression of the genes were quantified through real-time quantitative reverse transcription PCR. Clobetasol was used as a positive control."}, "IL17A": {"tested_on": "IL17A", "experiment": "skin Resident Immune Cell Assay (sRICA), Th17 model, IL17A protein in media", "format": "cell-based", "conditions": "100 uM solution in 1% DMSO/OD applied topically to human skin, media collected 24 hours after Th17 activation", "procedure,_shortened": "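Human surgical skin, dermatomed to 750μm, 8 mm biopsies cultured air-liquid in transwells; RORγt inhibitors applied topically at 100 uM in 1% DMSO/OD, up to 24 h before Th17 activation by cytokine/antibody cocktail. IL17A measured in media 24 h post-activation by SiMoA, expressed as % of activated untreated skin.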"}},
  "data": [
    {"compound": "C[C@H]1C[C@H]2[C@@H]3CCC4=CC(=O)C=C[C@]4(C)[C@@]3(F)[C@@H](O)C[C@]2(C)[C@@]1(O)C(=O)CCl", "note": "[Clobetasol]", "values": [
      {"measurement": "Body weight change / systemic toxicity", "setting": "[1]", "result": "significant weight loss"},
      {"measurement": "CCL-20 gene expression", "setting": "Th17 associated genes", "result": 10, "unit": "% reduction"},
      {"measurement": "FoxP3 gene expression", "setting": "Th17 associated genes", "result": "6-fold increase"},
      {"measurement": "IL-17A gene expression", "setting": "Th17 associated genes", "result": 68, "unit": "% reduction"},
      {"measurement": "IL-19 gene expression", "setting": "Th17 associated genes", "result": 53, "unit": "% reduction"},
      {"measurement": "IL-36γ gene expression", "setting": "Th17 associated genes", "result": 60, "unit": "% reduction"},
      {"measurement": "S100A7 gene expression", "setting": "Th17 associated genes", "result": 62, "unit": "% reduction"},
      {"measurement": "SerapinB gene expression", "setting": "Th17 associated genes", "result": 65, "unit": "% reduction"},
      {"measurement": "TNFα gene expression", "setting": "Th17 associated genes", "result": 25, "unit": "% reduction"}
    ]},
    {"compound": "COc1ccc([C@H](C(=O)Nc2cc(F)c([Si](C)(C)C)cc2F)N(C)C(=O)c2cc(O)no2)cc1", "note": "[N-((1R)-2-((2,5-difluoro-4-(trimethylsilyl)phenyl)amino)-1-(4-methoxyphenyl)-2-oxoethyl)-3-hydroxy-N-methyl-1,2-oxazole-5-carboxamide]", "values": [
      {"measurement": "inhibition at 100 µM", "setting": "IL17A; Homo sapiens, 24 h", "result": 18.2, "unit": "%"}
    ]},
    {"compound": "COCc1ccc([C@@H](NC(=O)CCS(C)(=O)=O)C(=O)Nc2ccc([Si](C)(C)C)c(F)c2)cc1", "note": "[N-((1R)-2-((3-fluoro-4-(trimethylsilyl)phenyl)amino)-1-(4-(methoxymethyl)phenyl)-2-oxoethyl)-3-(methylsulfonyl)propanamide]", "values": [
      {"measurement": "inhibition at 100 µM", "setting": "IL17A; Homo sapiens, 24 h", "result": 67.4, "unit": "%"}
    ]},
    {"compound": "COCc1ccc([C@@H](NC(=O)N2CC(O)C2)C(=O)Nc2ccc([Si](C)(C)C)c(F)c2)cc1", "note": "[N-((1R)-2-((3-fluoro-4-(trimethylsilyl)phenyl)amino)-1-(4-(methoxymethyl)phenyl)-2-oxoethyl)-3-hydroxyazetidine-1-carboxamide]", "values": [
      {"measurement": "inhibition at 100 µM", "setting": "IL17A; Homo sapiens, 24 h", "result": 54.6, "unit": "%"}
    ]},
    {"compound": "COCc1ccc([C@@H](NC(=O)C2CCOCC2)C(=O)Nc2ccc([Si](C)(C)C)c(F)c2)cc1", "note": "[N-((1R)-2-((3-fluoro-4-(trimethylsilyl)phenyl)amino)-1-(4-(methoxymethyl)phenyl)-2-oxoethyl)tetrahydro-2H-pyran-4-carboxamide]", "values": [
      {"measurement": "inhibition at 100 µM", "setting": "IL17A; Homo sapiens, 24 h", "result": -20.1, "unit": "%"}
    ]},
    {"compound": "CC(C)(C)c1ccc(NC(=O)[C@H](NC(=O)C(O)C(F)(F)F)C2CCOCC2)cc1Cl", "note": "(stereo partly drawn) [N-((1R)-2-((4-tert-butyl-3-chlorophenyl)amino)-2-oxo-1-(tetrahydro-2H-pyran-4-yl)ethyl)-3,3,3-trifluoro-2-hydroxypropanamide]", "values": [
      {"measurement": "inhibition at 100 µM", "setting": "IL17A", "result": 71.3, "unit": "%"}
    ]},
    {"compound": "CCn1c2ccccc2c2cc(C(=O)NCC(C)CC(=O)Nc3ccc(C#N)c(Cl)c3)ccc21", "note": "(centres unmarked) [N-{4-[(3-chloro-4-cyanophenyl)amino]-2-methyl-4-oxobutyl}-9-ethyl-9H-carbazole-3-carboxamide]", "values": [
      {"measurement": "inhibition at 100 µM", "setting": "IL17A; Homo sapiens, 24 h", "result": 24.5, "unit": "%"}
    ]},
    {"compound": "Cn1ncc2cc([C@@H](NC(=O)[C@@H]3CNC(=O)C3)C(=O)Nc3ccc([Si](C)(C)C)c(F)c3)ccc21", "note": "[drawing 79, (3S)-N-((1R)-2-((3-fluoro-4-(trimethylsilyl)phenyl)amino)-1-(1-methyl-1H-indazol-5-yl)-2-oxoethyl)-5-oxopyrrolidine-3-carboxamide]", "values": [
      {"measurement": "inhibition at 100 µM", "setting": "IL17A; Homo sapiens, 24 h", "result": 45.7, "unit": "%"}
    ]},
    {"compound": "Cn1ncc2cc([C@@H](NC(=O)[C@@H]3CNC(=O)C3)C(=O)Nc3ccc([Si](C)(C)C)c(F)c3)ccc21", "note": "[drawing 89, (3S)-N-(2-((3-fluoro-4-(trimethylsilyl)phenyl)amino)-1-(1-methyl-1H-indazol-5-yl)-2-oxoethyl)-5-oxopyrrolidine-3-carboxamide]", "values": [
      {"measurement": "Activity in sRICA (% inhibition of IL17A)", "setting": "IL17A", "result": 36.72, "unit": "%"}
    ]}
  ]
}
